Assay [1] addresses hm-DNA (12 bp). Briefly: ITC, hm-DNA titrated into UHRF1 domains. It is filed as binding. The settings on record: 18 °C, 12-bp hm-DNA in syringe, named protein in cell, 10 mM HEPES pH 8.0, 100 mM NaCl. The procedure:
(§1) For competition ITC experiments: the indicated proteins were pre-incubated with competitive peptide, protein or hm-DNA (at 1:2 molar ratio if not specified) for 10 min followed by ITC measurements as described above. Proteins, DNA and peptides were prepared within ITC buffer containing 10 mM HEPES, pH 8.0, 100 mM NaCl. The data were fitted by software Origin 7.0. All ITC results were summarized in Supplementary Table 2 and raw data were shown in Supplementary Fig. 9.

Assay [2] concerns the target FAM-12bp-HM-DNA. Briefly: Fluorescence polarization, 12-bp FAM-hm-DNA. The assay is classed as binding. The settings on record: FP. The procedure: A 6-carboxy-fluorescein (FAM)-labelled primer, 5′-CCATGCGCTGAC-3′, was annealed to a primer 5′-GTCAGXGCATGG-3′ (X=5-methyldeoxycytosine). The hemi-methylated double-strand DNA was used in both electrophoretic mobility-shift assay and FP assays. […] The samples were subjected to a 10% polyacrylamide gel electrophoresis and run in 0.5 × Tris-borate-EDTA buffer at 100 V for 1 h at 4 °C. The results were visualized on Tanon-5200 Chemiluminescent Imaging System (Tanon Science & Technology Co., Ltd).
(§2) FP measurements were performed at 25 °C on Synergy 4 Microplate Reader (BioTek). The 16-bp and 20-bp FAM-labelled hm-DNA (lower strand: 5′-GTGTCAGXGCATGGCC-3′ and 5′-CCGTGTCAGXGCATGGCCAT-3′, respectively. X=5-methyldeoxycytosine) were used in the FP experiment to test the effect of DNA length on the protein/DNA interaction. All experiments were performed in triplicate. The curves were fitted by GraphPad Prism 5. For salt concentration-dependent FP experiments, the reaction buffer contains 50 mM or 150 mM NaCl, respectively.

The target in assay [3] is PHD (residues 307–366) of UHRF1. Briefly: ITC, PHD titrated into UHRF1 domains. It is filed as binding, human. The settings on record: 18 °C, PHD in syringe, named protein in cell, 10 mM HEPES pH 8.0, 100 mM NaCl. The procedure:
as §1

The target in assay [4] is RFTS^DNMT1. Briefly: ITC, RFTS of DNMT1 with SRA or SRA-Spacer. The assay is classed as binding. As to conditions: 18 °C, RFTS^DNMT1 with named protein, 10 mM HEPES pH 8.0, 100 mM NaCl. How it is done:
as §1

The target of assay [5] is FAM-16bp-HM-DNA. Briefly: Fluorescence polarization, 16-bp FAM-hm-DNA. As to conditions: FP, DNA length series. The assay is classed as binding. The procedure:
as §2

The target in assay [6] is FAM-20bp-HM-DNA. Briefly: Fluorescence polarization, 20-bp FAM-hm-DNA. The assay is classed as binding. The settings on record: FP, DNA length series. How it is done: as §2
For assay [7], the target named is T1, TTD (residues 134–285) of UHRF1 (Homo sapiens, UniProt Q96T88).
T1 construct: TTD (residues 134–285); GST (N, cleaved yes); made in house; host or cells: E. coli BL21 (DE3)
T1 sequence (Q96T88 134-285): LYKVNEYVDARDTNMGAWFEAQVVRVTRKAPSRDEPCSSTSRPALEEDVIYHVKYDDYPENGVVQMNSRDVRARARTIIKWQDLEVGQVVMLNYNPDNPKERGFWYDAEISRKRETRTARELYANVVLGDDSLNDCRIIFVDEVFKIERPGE
Briefly: ITC, TTD titrated into Spacer variants and other UHRF1 fragments. It is filed as binding. As to conditions: TTD in syringe. The procedure: as §1

For assay [8], the system named is H3 peptide (1–17) (H3K9me0). Briefly: ITC, H3 (H3K9me0) peptide (1-17) titrated into UHRF1 proteins. It is filed as binding. How it is done:
as §1

Assay [9] relates to DAPI foci (pericentromeric heterochromatin) in NIH3T3 cells. Briefly: Subcellular localization of GFP-tagged UHRF1 in NIH3T3 cells. The settings on record: GFP-tagged protein transiently overexpressed in NIH3T3 cells, 36 h after transfection; at least 100 cells counted; repeated three times. The assay is classed as cell-based. How it is done:
NIH3T3 cells were obtained from the Shanghai Institute of Biochemistry and Cell Biology. Wild type and mutants of UHRF1 were sub-cloned into pEGFP-C1 vector. Transient transfections of NIH3T3 cells were carried out using Lipofectamine 2000 (Invitrogen). The NIH3T3 cells were grown on glass coverslips and harvested in 36 h after transfection. The images were acquired and examined as previously described. Briefly, cells were fixed with 4% paraformaldehyde for 25 min, then washed with PBS three times. Coverslips were mounted with Antifade reagent containing DAPI (Molecular Probes) on slides and examined with a confocal microscopy.

In assay [10] the target is H3K9me3 peptide (1–17). Briefly: ITC, H3K9me3 peptide (1-17) titrated into UHRF1 proteins. It is filed as binding. As to conditions: ITC, 18 °C; named protein 0.05 mM in cell, H3K9me3 (1-17) 0.5 mM in syringe; 10 mM HEPES pH 8.0, 100 mM NaCl; read-out: KD. How it is done:
as §1

Where [11] appears, read: 25 °C, 20 min, 20 mM HEPES pH 7.5, 175 mM NaCl, 8% glycerol, 1 mM DTT, triplicate, Fig. 5b and Supplementary Table 4.

On to “SRA: SET-and-RING-associated domain of human UHRF1 (residues 414–617)”, for which the Kd in assay [1] was 25.1 µM; in [2] (12-bp hm-DNA, 50 mM NaCl) it was 0.15 ± 0.018 µM; in [2] (12-bp hm-DNA, 150 mM NaCl) it was 5.92 ± 1.32 µM; in [2] (setting [11]), 9.23 ± 3.07 µM; in assay [2] (DNA length series, Supplementary Table 5, 12-bp hm-DNA) it was 12.8 ± 2.07 µM; in [3] it was 26.7 ± 12.1 µM. In addition, the Kd in assay [5] stood at 29.4 ± 9.74 µM; in [6] it was 9.59 ± 4.78 µM. In [4], the KD result is recorded as “no detectable interaction”.

With “Spacer587-641: Spacer fragment, residues 587–641 (PGPWTKEGKDRIKKLGLTMQYPEGYLEALANREREKENSKREEEEQQEGGFASPR; left off: GST, end not stated, cleaved)”, the KD entry in [7] (ITC, 18 °C, named protein or peptide in cell, 10 mM HEPES pH 8.0, 100 mM NaCl) is “no detectable interaction”.

Regarding “PHD: plant homeodomain of human UHRF1 (residues 307–366) (DDVNRLCRVCACHLCGGRQDPDKQLMCDECDMAFHIYCLDPPLSSVPSEDEWYCPECRND; UniProt Q96T88 307-366, looked up, fragment)”, the “fold higher binding affinity to H3K9me0 peptide than full-length UHRF1” value in assay [8] (ITC KD ratio) is about 34 fold.

Consider “UHRF1: recombinant human UHRF1 (residues 1–793); GFP-tagged in the cell assay”, for which the Kd in [8] (ITC, 18 °C, named protein 0.05 mM in cell, H3 (1-17) 0.5 mM in syringe, 10 mM HEPES pH 8.0, 100 mM NaCl) turned out to be 26 ± 7.01 µM; in assay [2] (setting [11]), 0.35 µM; in assay [10] it was 4.61 ± 0.47 µM. Further, the “percentage of cells showing co-localization with DAPI foci” value in assay [9] was 74.6%.

In turn, “Spacer642-674: Spacer fragment, residues 642–674 (TGKGKWKRKSAGGGPSRAGSPRRTSKKTKVEPY; left off: GST, end not stated, cleaved)” gave a N in assay [7] (ITC stoichiometry) of 1.09±0.00765. In addition, in [7] (ITC), the ΔH was -11.3 kcal/mol and the ΔS is recorded as -11.2 cal/mol/deg.

These data come from article PMC4822050, “Hemi-methylated DNA opens a closed conformation of UHRF1 to facilitate its histone recognition” (Nature Communications, 2016).
